Reference: ChEMBL document CHEMBL1201862, “PubChem BioAssay data set” (2004)
Active and inactive are the calls of the source.

Experiments:
[1] = biological target: T1, E3 ubiquitin-protein ligase XIAP (Homo sapiens, UniProt P98170); assay: Counter Screen using XIAP-Bir3 for Chemical Antagonists of Bir1/2 domains of IAP-family anti-apoptotic proteins. [Related pubchem assays (depositor defined):AID1018, AID1449, AID1514, AID1638, AID1749, AID1750, AID488957, AID488963]
[2] = biological target: T1, E3 ubiquitin-protein ligase XIAP; assay: small molecules displacing peptide from XIAP – biochemical, IAP family, fluorescence polarization (AID 1018); assay type: functional
[3] = biological target: T2, Tyrosine-protein phosphatase non-receptor type 7 (Homo sapiens, UniProt P35236); assay type: functional
T2 sequence (P35236 whole entry): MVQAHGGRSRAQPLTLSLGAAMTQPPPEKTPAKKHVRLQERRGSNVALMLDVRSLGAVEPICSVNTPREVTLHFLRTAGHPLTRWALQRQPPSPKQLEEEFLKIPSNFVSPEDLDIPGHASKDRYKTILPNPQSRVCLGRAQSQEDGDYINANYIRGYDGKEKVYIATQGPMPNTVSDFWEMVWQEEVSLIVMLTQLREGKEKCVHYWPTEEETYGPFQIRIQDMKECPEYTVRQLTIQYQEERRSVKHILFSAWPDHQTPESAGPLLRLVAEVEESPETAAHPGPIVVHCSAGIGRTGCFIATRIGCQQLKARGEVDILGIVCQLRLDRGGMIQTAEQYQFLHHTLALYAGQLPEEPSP

[4] = biological target: T3, Tyrosine-protein phosphatase non-receptor type 22 (Homo sapiens, UniProt Q9Y2R2); assay type: functional
T3 sequence (Q9Y2R2 whole entry): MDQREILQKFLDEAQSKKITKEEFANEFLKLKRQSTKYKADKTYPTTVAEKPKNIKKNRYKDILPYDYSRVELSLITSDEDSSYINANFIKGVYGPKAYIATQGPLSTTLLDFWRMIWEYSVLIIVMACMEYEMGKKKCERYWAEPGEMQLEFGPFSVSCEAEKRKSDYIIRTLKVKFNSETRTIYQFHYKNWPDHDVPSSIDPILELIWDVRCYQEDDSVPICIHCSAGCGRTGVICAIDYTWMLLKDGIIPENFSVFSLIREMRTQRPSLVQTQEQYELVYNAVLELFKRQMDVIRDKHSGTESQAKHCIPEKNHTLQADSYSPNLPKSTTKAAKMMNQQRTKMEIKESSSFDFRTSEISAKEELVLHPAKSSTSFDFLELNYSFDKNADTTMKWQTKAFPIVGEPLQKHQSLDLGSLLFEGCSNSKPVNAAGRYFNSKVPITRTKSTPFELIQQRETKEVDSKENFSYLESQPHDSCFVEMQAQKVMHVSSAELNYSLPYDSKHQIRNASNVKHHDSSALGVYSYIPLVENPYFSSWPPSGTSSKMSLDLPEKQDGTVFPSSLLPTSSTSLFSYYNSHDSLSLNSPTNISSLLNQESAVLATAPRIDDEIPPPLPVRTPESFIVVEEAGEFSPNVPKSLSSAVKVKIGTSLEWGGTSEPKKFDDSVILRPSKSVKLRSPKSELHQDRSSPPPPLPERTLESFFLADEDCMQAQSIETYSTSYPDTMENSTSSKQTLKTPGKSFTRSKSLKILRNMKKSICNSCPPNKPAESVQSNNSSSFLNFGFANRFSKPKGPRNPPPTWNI

[5] = biological target: T3, Tyrosine-protein phosphatase non-receptor type 22; assay type: functional; remark: listed apart in the source
[6] = viability of PTEN-deleted HCT116 cells – cell-based, HCT116 PTEN knockout, dose response (AID 1047); assay type: functional;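 also: HCT116 colon tumor cells with PTEN knocked out; cells exposed to compound for 60 hours before readout; potency for loss of cell viability measured by luminescence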
[7] = loss of viability in HepG2 cells – cell-based, CellTiter-Glo, cherry-picked, cytotoxicity control for Shn3 inhibitor project, dose response (AID 624134); assay type: functional
[8] = biological target: G-protein coupled receptor 55 (Homo sapiens, UniProt Q9Y2T6); assay: selective activators of receptor GPR55 – imaging, U2OS cells, beta-arrestin-GFP redistribution, primary screen (AID 1961); assay type: functional
[9] = reduced cellular PGC1a acetyl-lysine signal – cell-based, cherry-picked samples, dose response (AID 720514); assay type: functional;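 also: potency may reflect raised or lowered acetylation signal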
[10] = tested on: INS1; assay: INS-1E survival protection against cytokine death – cell-based, luminescence, retest, dose response (AID 449756); assay type: functional; conditions: Rattus norvegicus;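 also: cell death triggered by IL-1 beta plus TNF-alpha plus IFN-gamma mixture; protective hits raise ATP signal compared with cytokine alone wells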
[11] = non-specific 3'UTR reporter inhibition in Clone20-Shn3RL – cell-based, Renilla luciferase, cherry-picked, counter-screen for Shn3 inhibitor project, dose response (AID 624133); assay type: functional
[12] = viability of HCT116 lacking mutant beta-catenin – cell-based, human colon tumor, dose response (AID 1045); assay type: functional;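 also: HCT116 colon tumor cells with beta catenin knocked out; cells exposed to compound for 60 hours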
[13] = reduction of Shn3 3'UTR-driven luciferase in osteoblasts – cell-based, Clone20 osteoblasts, firefly luciferase, cherry-picked, dose response (AID 624132); assay type: functional;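 also: firefly luciferase luminescence from reporter carrying the Shn3 3'UTR in osteoblasts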
[14] = biological target: T4, Replicative DNA helicase DnaB (Mycobacterium tuberculosis, UniProt P9WMR3); assay: DnaB intein splicing inhibitors, dose response, biochemical, cell-free fluorescence (AID 449749); assay type: functional
T4 sequence (P9WMR3 whole entry): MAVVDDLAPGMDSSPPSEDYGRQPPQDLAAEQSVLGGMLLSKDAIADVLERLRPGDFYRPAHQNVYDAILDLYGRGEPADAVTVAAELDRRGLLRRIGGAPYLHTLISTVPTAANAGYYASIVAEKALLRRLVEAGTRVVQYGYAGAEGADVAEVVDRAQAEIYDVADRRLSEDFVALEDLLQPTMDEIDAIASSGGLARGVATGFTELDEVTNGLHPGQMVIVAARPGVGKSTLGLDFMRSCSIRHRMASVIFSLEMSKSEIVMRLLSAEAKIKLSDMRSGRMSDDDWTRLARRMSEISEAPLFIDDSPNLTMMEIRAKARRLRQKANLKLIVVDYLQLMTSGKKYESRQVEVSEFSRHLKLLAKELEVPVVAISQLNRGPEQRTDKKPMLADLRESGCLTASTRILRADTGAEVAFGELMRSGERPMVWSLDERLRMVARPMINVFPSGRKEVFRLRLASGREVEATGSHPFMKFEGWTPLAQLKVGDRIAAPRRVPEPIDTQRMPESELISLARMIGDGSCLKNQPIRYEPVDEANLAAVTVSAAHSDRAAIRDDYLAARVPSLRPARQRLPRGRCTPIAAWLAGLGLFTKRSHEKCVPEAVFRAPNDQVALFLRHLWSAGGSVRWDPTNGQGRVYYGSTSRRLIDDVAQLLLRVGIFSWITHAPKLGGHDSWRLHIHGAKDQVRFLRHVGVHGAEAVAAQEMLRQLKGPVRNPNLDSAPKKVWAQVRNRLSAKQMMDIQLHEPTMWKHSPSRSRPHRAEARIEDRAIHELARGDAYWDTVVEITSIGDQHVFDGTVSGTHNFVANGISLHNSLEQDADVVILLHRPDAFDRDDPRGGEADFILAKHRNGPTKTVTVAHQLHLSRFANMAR

[15] = biological target: T5, Protein RecA (Mycobacterium tuberculosis, UniProt P9WHJ3); assay: Fluorescence Cell-Free Homogeneous Dose Retest to Identify Inhibitors of RecA-Intein Splicing Activity. [Related pubchem assays (depositor defined):AID2097, AID2223, AID489010, AID492950]; assay type: functional
T5 sequence (P9WHJ3 whole entry): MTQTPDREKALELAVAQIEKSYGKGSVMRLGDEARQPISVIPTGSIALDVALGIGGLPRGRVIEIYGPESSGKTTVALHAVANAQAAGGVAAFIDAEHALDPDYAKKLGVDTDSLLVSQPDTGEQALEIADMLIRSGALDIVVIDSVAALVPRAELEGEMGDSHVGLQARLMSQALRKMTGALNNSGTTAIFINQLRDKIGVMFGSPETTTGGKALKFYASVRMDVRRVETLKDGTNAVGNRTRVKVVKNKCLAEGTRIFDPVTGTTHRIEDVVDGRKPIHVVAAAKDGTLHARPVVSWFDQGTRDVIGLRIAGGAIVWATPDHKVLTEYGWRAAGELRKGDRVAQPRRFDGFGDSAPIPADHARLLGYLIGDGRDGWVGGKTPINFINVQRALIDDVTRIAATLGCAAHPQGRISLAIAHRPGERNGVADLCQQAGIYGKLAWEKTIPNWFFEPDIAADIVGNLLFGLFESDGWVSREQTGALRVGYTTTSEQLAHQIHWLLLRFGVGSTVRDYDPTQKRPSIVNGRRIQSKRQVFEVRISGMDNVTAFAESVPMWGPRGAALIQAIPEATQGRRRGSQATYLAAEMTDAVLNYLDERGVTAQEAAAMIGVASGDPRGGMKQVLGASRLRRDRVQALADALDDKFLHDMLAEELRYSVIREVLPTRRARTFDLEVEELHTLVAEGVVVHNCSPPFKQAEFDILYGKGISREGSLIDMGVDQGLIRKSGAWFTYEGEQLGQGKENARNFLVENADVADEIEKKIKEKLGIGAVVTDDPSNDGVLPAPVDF

[16] = Fluorescence-based cell-based high throughput dose response assay for inhibitors of the interaction of nucleotide-binding oligomerization domain containing 2 (NOD2) and the receptor-interacting serine-threonine kinase 2 (RIPK2).; assay type: functional; conditions: Homo sapiens
[17] = cells; assay type: functional
[18] = viability loss of HPDE-C7K cells – cell-based, fluorescence, HTS, primary screen (AID 431); assay type: functional; conditions: Homo sapiens
[19] = Vero E6 cell cytotoxicity, dose response, cytotoxicity control for non-replicating M. tuberculosis project, secondary assay (AID 492998); assay type: functional, VeroE6; conditions: Vero C1008
[20] = THP-1 cell cytotoxicity, dose response, cytotoxicity control for non-replicating M. tuberculosis project (AID 489025); assay type: functional
[21] = biological target: T6, Short transient receptor potential channel 4 (Mus musculus, UniProt Q9QUQ5); assay: calcium entry via TRPC4 opening agents – cell-based, HEK293 TRPC4/mu-opioid, Fluo-4 calcium, dose response (AID 434937); assay type: functional
T6 sequence (Q9QUQ5 whole entry): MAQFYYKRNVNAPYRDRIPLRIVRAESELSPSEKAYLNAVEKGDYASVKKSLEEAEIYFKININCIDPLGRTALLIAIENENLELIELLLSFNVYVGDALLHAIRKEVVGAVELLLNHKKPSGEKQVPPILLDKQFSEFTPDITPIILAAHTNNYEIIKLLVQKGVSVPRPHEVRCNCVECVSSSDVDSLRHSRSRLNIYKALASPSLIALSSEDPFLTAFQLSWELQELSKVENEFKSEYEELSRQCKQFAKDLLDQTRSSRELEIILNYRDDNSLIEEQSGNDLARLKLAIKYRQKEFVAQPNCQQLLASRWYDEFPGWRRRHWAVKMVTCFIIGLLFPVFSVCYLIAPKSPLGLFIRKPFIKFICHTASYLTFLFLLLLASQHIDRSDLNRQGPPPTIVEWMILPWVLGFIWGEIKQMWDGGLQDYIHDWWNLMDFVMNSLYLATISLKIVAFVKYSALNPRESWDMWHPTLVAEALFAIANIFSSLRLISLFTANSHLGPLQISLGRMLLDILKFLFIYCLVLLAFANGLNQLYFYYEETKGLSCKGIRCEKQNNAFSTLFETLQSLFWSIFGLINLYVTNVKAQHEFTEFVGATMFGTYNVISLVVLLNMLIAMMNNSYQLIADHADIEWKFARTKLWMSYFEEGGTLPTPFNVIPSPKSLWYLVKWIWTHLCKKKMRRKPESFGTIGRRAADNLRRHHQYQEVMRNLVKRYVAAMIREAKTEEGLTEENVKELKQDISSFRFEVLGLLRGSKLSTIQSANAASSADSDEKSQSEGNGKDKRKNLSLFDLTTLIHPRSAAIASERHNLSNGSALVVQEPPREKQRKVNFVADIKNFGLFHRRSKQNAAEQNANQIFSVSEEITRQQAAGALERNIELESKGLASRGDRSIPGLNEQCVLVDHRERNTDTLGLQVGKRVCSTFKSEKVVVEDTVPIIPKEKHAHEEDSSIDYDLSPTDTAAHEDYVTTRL

[22] = HPDE-C7 pancreatic duct cell viability loss – fluorescence, HTS (AID 430); assay type: functional, cell-based; conditions: Homo sapiens

T1 sequence (P98170 whole entry): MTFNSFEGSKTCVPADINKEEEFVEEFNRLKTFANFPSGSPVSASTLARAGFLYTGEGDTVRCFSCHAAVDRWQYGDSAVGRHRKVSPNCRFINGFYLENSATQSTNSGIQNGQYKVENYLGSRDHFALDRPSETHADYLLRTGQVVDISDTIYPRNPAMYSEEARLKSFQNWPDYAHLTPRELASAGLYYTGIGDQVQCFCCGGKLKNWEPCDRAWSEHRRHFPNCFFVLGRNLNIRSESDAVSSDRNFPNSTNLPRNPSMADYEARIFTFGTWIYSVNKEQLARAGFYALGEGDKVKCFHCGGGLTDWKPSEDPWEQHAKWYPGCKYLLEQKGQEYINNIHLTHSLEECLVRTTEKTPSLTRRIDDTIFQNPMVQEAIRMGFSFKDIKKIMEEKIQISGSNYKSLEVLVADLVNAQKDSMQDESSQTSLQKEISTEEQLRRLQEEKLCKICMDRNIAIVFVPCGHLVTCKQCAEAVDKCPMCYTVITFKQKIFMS
Chain of G-protein coupled receptor 55 (Q9Y2T6 whole entry): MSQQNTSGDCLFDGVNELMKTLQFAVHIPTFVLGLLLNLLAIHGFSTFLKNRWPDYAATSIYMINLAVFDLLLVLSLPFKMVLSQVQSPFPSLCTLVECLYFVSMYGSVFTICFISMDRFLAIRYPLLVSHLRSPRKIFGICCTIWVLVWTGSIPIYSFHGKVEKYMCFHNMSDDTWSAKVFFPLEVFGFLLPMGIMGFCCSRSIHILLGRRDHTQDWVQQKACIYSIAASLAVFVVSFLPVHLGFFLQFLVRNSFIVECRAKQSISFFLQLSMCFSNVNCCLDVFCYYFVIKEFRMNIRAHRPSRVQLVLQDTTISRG

For `CC(C)(C)NC(=O)C(c1ccncc1)N(C(=O)Cn1nnc(-c2ccc(F)cc2)n1)c1ccccc1F` (configuration not stated), the IC50 [1] was > 100 µM (inactive) and the IC50 [2] was > 100 µM (not active).
For `Brc1ccc(C2Nc3cccc4cccc(c34)N2)o1`, the IC50 [3] was > 79.4 µM (inactive), the IC50 [4] was > 79.4 µM (inactive) and the IC50 [5] was > 79.4 µM (inactive).
With `O=C(NCc1cccnc1)/C(=C/c1ccc(-c2ccc(Cl)cc2)o1)S(=O)(=O)c1ccccc1` the EC50 [6] was 4.4 µM (active), the AC50 [7] was 11.9 µM (active) and the EC50 [8] was > 32 µM (inactive). The AC50 [9] was 6.04 µM (active), the AC50 [10] was 6.51 µM (active) and the AC50 [11] was 11.8 µM (active). For the same compound, the EC50 [12] was 4.08 µM (active), the AC50 [13] was 5.35 µM (active) and the AC50 [14] was > 380 µM (inactive). The EC50 [15] was 27.3 µM (active) and the IC50 [16] was 6.4 µM (active).
In the case of `CCOc1ccc(C(=O)Nc2cccc(NC(=O)c3cccs3)c2)cc1[N+](=O)[O-]`, the IC50 [1] is reported as > 100 µM (inactive) and the IC50 [2] is reported as > 100 µM (not active).
In the case of `Cn1c(SCC(=O)N2CCN(c3ccccc3)CC2)nnc1-c1cc2ccccc2o1`, the IC50 [3] is reported as > 79.4 µM (inactive), the IC50 [4] is reported as > 79.4 µM (inactive) and the IC50 [5] is reported as > 79.4 µM (inactive).
In the case of `CCn1cc(CNC(=O)c2cc([N+](=O)[O-])c(C)c([N+](=O)[O-])c2)cn1`, the IC50 [3] is reported as > 79.4 µM (inactive), the IC50 [4] is reported as > 79.4 µM (inactive) and the IC50 [5] is reported as > 79.4 µM (inactive).
With `COC(=O)C1=C(C(=O)OC)N2C=CC=CC2(C)C(C(=O)OC)=C1C(=O)OC` (configuration not stated) the IC50 [1] was > 100 µM (inactive) and the IC50 [2] was > 100 µM (not active).
For `CN(C)C=C1C(=O)N(C2CCCCC2)C(=O)N(C2CCCCC2)C1=O`, the IC50 [17] was 11.2 µM (active), the EC50 [18] was 13.7 µM (active) and the CC50 [19] was > 20 µM (active). For the same compound, the CC50 [20] was > 40 µM (active), the EC50 [21] was 9.44 µM (active) and the EC50 [22] was 9.27 µM (active).
